Assays:
[1] = biological target: T1, Brd4 bromodomain 1 (BRD4(1)) (Homo sapiens, UniProt O60885); experiment: Inhibition of tetra-acetylated histone H4 binding to Brd4 bromodomain 1 (TR-FRET); set-up: key: Active: Compounds with an IC50 value less than 30 μM were deemed to be active.; Not Active: Compounds with an IC50 value less than 30 μM were deemed to be active; settings: tetra-acetylated histone H4 peptide, active = IC50 <30 μM
T1 construct: Illustrative results with the first bromodomain of Brd4; made in house; host or cells: E. coli BL21 (DE3)
Method in brief: (§1)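 N-terminally His-tagged bromodomains (200 nM), expressed in E. coli, were incubated with biotinylated tetra-acetylated histone H4 peptide (25-50 nM), Eu-cryptate streptavidin and XL665 anti-His antibody in HEPES pH 7.4 buffer with KF, 0.2% DMSO, 2 h at room temperature. Inhibition read as decreased 665/620 nm TR-FRET; IC50 from dose-response curves.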

[2] = biological target: T2, second bromodomain of Brd2 (BRD2(2)) (Homo sapiens, UniProt P25440); experiment: Inhibition of tetra-acetylated histone H4 binding to Brd2 bromodomain 2 (TR-FRET); set-up: key: Active: Compounds with an IC50 value less than 30 μM were deemed to be active.; Not Active: Compounds with an IC50 value less than 30 μM were deemed to be active; settings: tetra-acetylated histone H4 peptide, active = IC50 <30 μM
T2 construct: made in house; host or cells: E. coli BL21 (DE3)
Method in brief: as §1

[3] = test system: human AML MV-4-11 (CRL-9591) cells; experiment: Inhibition of cell proliferation in MV4-11 cells; type: cell-based; set-up: key: Active: Compounds with an IC50 value less than 30 μM were deemed to be active.; Not Active: Compounds with an IC50 value less than 30 μM were deemed to be active; settings: human AML MV-4-11 cells, 72 h; active = IC50 <30 μM
Method in brief: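 Exponentially growing MV-4-11 cells (5×10^4/well) were treated immediately with two-fold dilutions of compound from 30 μM to 0.2 μM, in triplicate, for 72 h at 37° C, 5% CO2. Viability was measured by MTS absorbance at 490 nm after 3–4 h. Proliferation relative to DMSO after blank correction gave IC50.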

hIL-6 mRNA = experiment: Inhibition of hIL-6 mRNA transcription in U937 cells; type: cell-based, human; set-up: key: Active: Compounds with an IC50 value less than 30 μM were deemed to be active.; Not Active: Compounds with an IC50 value less than 30 μM were deemed to be active; settings: LPS stimulation, active = IC50 <30 μM
Method in brief: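 U937 cells differentiated 3 days with 60 ng/mL PMA, pretreated 1 h with compound, then stimulated with 1 ug/mL E. coli LPS for 3 h at 37° C. hIL-6 mRNA quantified by one-step qRT-PCR, Ct normalized to internal control, expressed as fold induction relative to control.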

hMCP-1 mRNA = experiment: Inhibition of hMCP-1 mRNA transcription in human peripheral blood mononuclear cells; type: cell-based; set-up: key: Active: Compounds with an IC50 value less than 30 μM were deemed to be active.; Not Active: Compounds with an IC50 value less than 30 μM were deemed to be active; settings: 3 h
Experimental: In this example, hMCP-1 mRNA in human peripheral blood mononuclear cells was quantitated to measure the transcriptional inhibition of hMCP-1 when treated with a compound of the present disclosure.
Human Peripheral Blood Mononuclear Cells were plated (1.0×10^5 cells per well) in a 96-well plate in 45 μL RPMI-1640 containing 10% FBS and penicillin/streptomycin. The cells were treated with the test compound (45 μL at 2× concentration), and then the cells were incubated at 37° C. for 3 h before the cells were harvested. At time of harvest, cells were transferred to V-bottom plates and centrifuged (800 rpm, 5 min). Spent media was removed and cell lysis solution (70 μL) was added the cells in each well and incubated for 5-10 min at room temperature, to allow for complete cell lysis and detachment. mRNA was then prepared using the “mRNA Catcher PLUS plate” (Invitrogen), according to the protocol supplied. After the last wash, as much wash buffer as possible was aspirated without allowing the wells to dry. Elution buffer (E3, 70 μL) was then added to each well. mRNA was then eluted by incubating the mRNA Catcher PLUS plate with Elution Buffer for 5 min at 68° C. and then immediately placing the plate on ice.
(§2) The eluted mRNA isolated was then used in a one-step quantitative real-time PCR reaction, using components of the Ultra Sense Kit together with Applied Biosystems primer-probe mixes. Real-time PCR data was analyzed, normalizing the Ct values for hMCP-1 to an internal control, prior to determining the fold induction of each unknown sample, relative to the control.

MM1.s cells = experiment: In vivo efficacy, multiple myeloma xenograft model using MM1.s cells; set-up: species or system mouse; settings: MM1.s multiple myeloma xenograft in mice, oral 25 to 90 mg/kg b.i.d, tumor growth inhibition
Experimental: MM1.s cells (ATCC) were grown under standard cell culture conditions and SCID-Beige strain of female mice age 6-7 weeks were injected with 10×10^6 cells/animal in 100 μl PBS+100 μL Matrigel in the lower left abdominal flank. By approximately day 21 after MM1.s cells injection, mice were randomized based on tumor volume (L×W×H)/2) of average ^˜120 mm^3. Mice were dosed orally with compound at 25 to 90 mg/kg b.i.d in EA006 formulation at 10 mL/kg body weight dose volume. Tumor measurements were taken with electronic micro calipers and body weights measured on alternate days beginning from dosing period. The average tumor volumes, percent Tumor Growth Inhibition (TGI) and % change in body weights were compared relative to Vehicle control animals. The means, statistical analysis and the comparison between groups were calculated using Student's t-test in Excel.

c-myc = experiment: Inhibition of c-myc expression in MV4-11 cells (mRNA, real-time PCR); type: cell-based; set-up: key: Active: Compounds with an IC50 value less than 30 μM were deemed to be active.; Not Active: Compounds with an IC50 value less than 30 μM were deemed to be active; settings: Human AML MV4-11 cells, 3 h incubation
Method in brief: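 MV4-11 cells (2.5×10^4) treated with compound or 0.1% DMSO for 3 h at 37 °C. c-myc mRNA measured by RT real-time PCR duplexed with cyclophilin. IC50 from dose–response curve.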

hIL-17 mRNA = experiment: Inhibition of hIL-17 mRNA transcription in human peripheral blood mononuclear cells; type: cell-based; set-up: key: Active: Compounds with an IC50 value less than 30 μM were deemed to be active.; Not Active: Compounds with an IC50 value less than 30 μM were deemed to be active; settings: OKT3 antibody stimulation
Experimental: In this example, hIL-17 mRNA in human peripheral blood mononuclear cells was quantitated to measure the transcriptional inhibition of hIL-17 when treated with a compound of the invention.
Human peripheral blood mononuclear cells were plated (2.0×10^5 cells per well) in a 96-well plate in 45 μL OpTimizer T Cell expansion media containing 20 ng/ml IL-2 and penicillin/streptomycin. The cells were treated with the test compound (45 μL. at 2× concentration), and then the cells were incubated at 37° C. for 1 h before addition of 10× stock OKT3 antibody at 10 ug/ml in media. Cells were incubated at 37° C. for 3 h before the cells were harvested. At time of harvest, cells were centrifuged (800 rpm, 5 min). Spent media was removed and cell lysis solution (70 μL) was added the cells in each well and incubated for 5-10 min at room temperature, to allow for complete cell lysis and detachment. mRNA was then prepared using the “mRNA Catcher PLUS plate” (Invitrogen), according to the protocol supplied. After the last wash, as much wash buffer as possible was aspirated without allowing the wells to dry. Elution buffer (E3, 70 μL) was then added to each well. mRNA was then eluted by incubating the mRNA Catcher PLUS plate with Elution Buffer for 5 min at 68° C. and then immediately placing the plate on ice.
as §2, with “hIL-17” for “hMCP-1”

T2 sequence (P25440 344-453 limits assumed): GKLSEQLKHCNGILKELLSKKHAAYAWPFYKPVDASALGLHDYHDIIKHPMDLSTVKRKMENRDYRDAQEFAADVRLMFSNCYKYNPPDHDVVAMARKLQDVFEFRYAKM

FRET activity (IC50 <30 μM) BRD4(1) [1] | FRET activity (IC50 <30 μM) BRD2(2) [2] | Cell Proliferation activity (IC50 <30 μM) [3] | IL-6 activity (IC50 <30 μM) (hIL-6 mRNA) | MCP-1 activity (IC50 < 30 μM) (hMCP-1 mRNA) | c-myc activity (IC50 <30 μM) (c-myc) | melting point [°C] | IL-17 activity (IC50 < 30 μM) (hIL-17 mRNA) | SMILES | In vivo activity (MM1.s cells)
Active | Active | Active | Active | Active |  |  |  | Cc1noc(C)c1-c1ccc(=O)n(Cc2ccccc2F)c1 [Example 27, 5-(3,5-Dimethylisoxazol-4-yl)-1-(2-fluorobenzyl)pyridin-2(1H)-one] | 
Active |  |  |  |  |  |  |  | Cc1noc(C)c1-c1cc(N)c(=O)n(Cc2ccc(Cl)cc2)c1 [Example 152, 3-Amino-1-(4-chlorobenzyl)-5-(3,5-dimethylisoxazol-4-yl)pyridin-2(1H)-one] | Active
Active | Active | Active | Active |  | Not Active | 139 to 141 |  | Cc1noc(C)c1-c1cn(Cc2ccccc2)c(=O)c2ccccc12 [Example 167, 2-Benzyl-4-(3,5-dimethylisoxazol-4-yl)isoquinolin-1(2H)-one] | 
Not Active | Active | Active | Not Active |  | Not Active | 166 to 168 |  | COc1cc(-c2cn(Cc3ccccc3)c(=O)c3ccccc23)cc(OC)c1OC [Example 168, 2-Benzyl-4-(3,4,5-trimethoxyphenyl)isoquinolin-1(2H)-one] | 
Active | Active | Active | Active |  | Active | 165 to 167 |  | COc1cc(-c2cn(Cc3ccccc3)c(=O)c3ccccc23)ccc1O [Example 169, 2-Benzyl-4-(4-hydroxy-3-methoxyphenyl)isoquinolin-1(2H)-one] | 
Active | Active | Active | Active |  | Active | 206 to 207 |  | COc1cc(Nc2nn(Cc3ccccc3)c(=O)c3ccccc23)cc(OC)c1OC [Example 171, 2-Benzyl-4-(3,4,5-trimethoxyphenylamino)-2H-phthalazin-1-one] | 
Active | Active | Active | Active |  | Not Active | 162 to 164 |  | COc1cc(Nc2cn(Cc3ccccc3)c(=O)c3ccccc23)cc(OC)c1OC [Example 172, 2-Benzyl-4-((3,4,5-trimethoxyphenyl)amino)isoquinolin-1(2H)-one] | 
Active |  | Active | Active |  | Active |  | Active | Cc1noc(C)c1-c1cc(N)c(=O)n(Cc2cccc3[nH]ccc23)c1 [Example 247, 1-((1H-Indol-4-yl)methyl)-3-amino-5-(3,5-dimethylisoxazol-4-yl)pyridin-2(1H)-one] | 
Active |  | Active | Active |  | Active |  | Active | Cc1noc(C)c1-c1cc(N)c(=O)n(Cc2cccc3[nH]cc(C)c23)c1 [Example 271, 3-Amino-5-(3,5-dimethylisoxazol-4-yl)-1-((3-methyl-1H-indol-4-yl)methyl)pyridin-2(1H)-one] | 
